The results in this text go back to PubChem BioAssay (NCI).

SMILES strings stand for the structures.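 Briefly, cells in 96-well plates were exposed to five compound concentrations for 48 h, and endpoints were estimated by linear interpolation. Here, GI50 denotes the concentration required for 50% inhibition of growth. TGI: total growth inhibition.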

Among the test systems are ACHN renal; HCT-116 colon; K-562 leukemia; M14 melanoma; SK-MEL-2 melanoma; UACC-62 melanoma; MDA-MB-435; NCI/ADR-RES ovarian; T-47D breast; HS 578T breast.
Experiment in all cases: NCI tumour cell line growth inhibition, 48 h

As for `Cn1c(=O)nc2n(-c3cccc(Br)c3)c3ccccc3nc-2c1=O`, the TGI in the assay with ACHN renal came to 13.7 µM; in the assay on HCT-116 colon it was 18.1 µM; in the assay with K-562 leukemia, 35.9 µM; in the assay with M14 melanoma, 10.1 µM; in the assay on SK-MEL-2 melanoma, 18.2 µM; with UACC-62 melanoma, 3.27 µM.

As for `N#CC(C(=O)CCC(=O)C(C#N)c1ccccc1)c1ccccc1` (stereo not drawn), the TGI with ACHN renal, in the assay on HCT-116 colon, in the assay on K-562 leukemia, in the assay on M14 melanoma, with SK-MEL-2 melanoma and in the assay on UACC-62 melanoma was above 100 µM in each case.

`COC(=O)C(=O)OC1(C(C)=O)CC2(c3ccccc3)OC1(c1ccccc1)c1ccccc12` (stereo not drawn): the TGI is 33.8 µM in the assay with HCT-116 colon, above 100 µM in the assay with K-562 leukemia, 31.9 µM with M14 melanoma and 28.1 µM with UACC-62 melanoma.

`CC1(c2cccc3ccccc23)OC(=O)c2ccccc21` (stereo not drawn): the TGI was 70.9 µM with ACHN renal; 34.6 µM in the assay with HCT-116 colon; 65.8 µM with K-562 leukemia; 37.2 µM in the assay on M14 melanoma; 62.6 µM with SK-MEL-2 melanoma; 25.6 µM in the assay on UACC-62 melanoma.

Take `CCCCCCCCCCCCCC(=O)CC(=O)c1c(O)cccc1O`: the TGI in the assay with ACHN renal is 74.5 µM; in the assay on HCT-116 colon, above 100 µM; with K-562 leukemia, 48.2 µM; in the assay on M14 melanoma, above 100 µM; with SK-MEL-2 melanoma, 41.4 µM; in the assay on UACC-62 melanoma it was above 100 µM.

As for `CCCCCC/C=C1\CCC(CN2CCCC2)C1=O` (stereo not drawn), the TGI was determined as 32.3 µM in the assay on ACHN renal; 25 µM in the assay with HCT-116 colon; 12.6 µM in the assay with K-562 leukemia; 33.6 µM with M14 melanoma; 30.5 µM with SK-MEL-2 melanoma; 35.9 µM in the assay with UACC-62 melanoma.

As for `O=c1nc2n(-c3ccc(Cl)cc3)c3ccc([N+](=O)[O-])cc3cc-2c(=O)[nH]1`, the GI50 is 57.4 µM in the assay on ACHN renal; 16.1 µM in the assay on HCT-116 colon; 32.6 µM in the assay on K-562 leukemia; 20.2 µM in the assay with M14 melanoma; 15.8 µM in the assay on MDA-MB-435; 49.6 µM in the assay on NCI/ADR-RES ovarian. For the same molecule, the results for the GI50 with SK-MEL-2 melanoma, in the assay on T-47D breast and in the assay on UACC-62 melanoma were 55.1 µM, 18.3 µM and 11.8 µM, respectively. For the same molecule, the TGI in the assay with ACHN renal was above 100 µM; with HCT-116 colon it was 33.2 µM; in the assay on K-562 leukemia, above 100 µM; with M14 melanoma it was 37.7 µM; in the assay with MDA-MB-435 it was 37.7 µM; in the assay on NCI/ADR-RES ovarian, above 100 µM. Also, the TGI in the assay with SK-MEL-2 melanoma is above 100 µM; in the assay on T-47D breast, 43.1 µM; with UACC-62 melanoma, 28.6 µM.

Regarding `CCOc1ccccc1NC(=O)CC1SC(=Nc2ccc([N+](=O)[O-])cc2)NC1=O` (stereo not drawn), the TGI came to 46 µM with ACHN renal; 29.3 µM in the assay with HCT-116 colon; 50.9 µM with M14 melanoma; 41.5 µM with SK-MEL-2 melanoma; 39.9 µM in the assay on UACC-62 melanoma.

Turning to `CCc1c(C#N)c(S[C@@H](C(N)=O)c2ccccc2)nc(N(C)C)c1C#N`, the GI50 with ACHN renal was 3.9 µM; in the assay with HCT-116 colon it was above 100 µM; with M14 melanoma, above 100 µM; in the assay with MDA-MB-435 it was above 100 µM; in the assay on SK-MEL-2 melanoma, above 100 µM; in the assay with T-47D breast, above 100 µM. Further, the TGI with ACHN renal, with HCT-116 colon, in the assay on M14 melanoma, in the assay with MDA-MB-435, in the assay with SK-MEL-2 melanoma and with T-47D breast was above 100 µM each time.

With `O=C(CC1(O)C(=O)Nc2c(Cl)ccc(Cl)c21)c1ccc2ccccc2c1` (stereo not drawn), the TGI with ACHN renal was 26.3 µM; in the assay on HCT-116 colon, 28.3 µM; with M14 melanoma it was 21.3 µM; in the assay on SK-MEL-2 melanoma, 26.3 µM; in the assay on UACC-62 melanoma it was 10.7 µM.

`BrC1=CC=C2NC=CC3=CC=NC1C32` (stereo not drawn): the TGI is above 93.8 µM with ACHN renal; 21.1 µM in the assay with HCT-116 colon; 52.8 µM with K-562 leukemia; 56.2 µM with M14 melanoma; 56.9 µM in the assay on SK-MEL-2 melanoma; 22.6 µM in the assay with UACC-62 melanoma.

Turning to `O=C1C(Cl)=C(Nc2cccc(Cl)c2)C(=O)N1Cc1ccccc1Cl`, the GI50 in the assay on ACHN renal is 4.36 µM; with HCT-116 colon it was 1.03 µM; with HS 578T breast, 9.4 µM; in the assay with K-562 leukemia it was 1.87 µM; with M14 melanoma it was 4.41 µM; in the assay on MDA-MB-435 it was 1.01 µM. Further, the GI50 with SK-MEL-2 melanoma is 4.33 µM; with UACC-62 melanoma, 3.05 µM. The TGI in the assay with ACHN renal turned out to be 17.1 µM; in the assay with HCT-116 colon it was 4.41 µM; in the assay with HS 578T breast it was 56.4 µM; in the assay with K-562 leukemia, 8.91 µM; in the assay on M14 melanoma, 19.4 µM; in the assay with MDA-MB-435 it was 4.09 µM. For the same molecule, the TGI was determined as 23.1 µM in the assay on SK-MEL-2 melanoma and 12.8 µM with UACC-62 melanoma.

With `O=[N+]([O-])c1nccn1CC(O)CN1CC1` (stereo not drawn), the TGI in the assay with ACHN renal, in the assay with HCT-116 colon, in the assay on K-562 leukemia, in the assay with M14 melanoma, in the assay on SK-MEL-2 melanoma and with UACC-62 melanoma was above 100 µM throughout.

For `CC(=O)[CH-]C(=O)c1ccccc1.CC(=O)[CH-]C(=O)c1ccccc1.CC(C)CCCC(C)[C@H]1CCC2[C@@H]3CC=C4C[C@@H]([O-])CC[C@]4(C)C3CC[C@@]21C.CC[O-].[Ti+4]` (stereo partly drawn), the GI50 in the assay on ACHN renal is 61 µM; in the assay with HCT-116 colon it was 45.7 µM; with K-562 leukemia, 33.1 µM; with M14 melanoma, 48.3 µM; with SK-MEL-2 melanoma, 22.4 µM; in the assay on UACC-62 melanoma, 82.3 µM. For the same molecule, the TGI in the assay with ACHN renal was above 100 µM; in the assay on HCT-116 colon it was above 100 µM; in the assay on K-562 leukemia, above 100 µM; with M14 melanoma it was above 100 µM; in the assay with SK-MEL-2 melanoma, 80.1 µM; with UACC-62 melanoma, above 100 µM.

Turning to `Oc1cc(O)c2c(-c3c(O)c(-c4ccc(O)c(O)c4)[o+]c4cc(O)cc(O)c34)c(O)c(-c3ccc(O)c(O)c3)[o+]c2c1`, the TGI was 66.6 µM in the assay with ACHN renal, above 100 µM in the assay on HCT-116 colon, above 100 µM with M14 melanoma and 46.7 µM in the assay on UACC-62 melanoma.

As for `O=C1NC(=O)C2C(=O)NC(=O)C1C2(c1ccccc1)c1cc[nH]c1` (stereo not drawn), the TGI in the assay with ACHN renal, in the assay on K-562 leukemia, in the assay on M14 melanoma, in the assay with SK-MEL-2 melanoma and with UACC-62 melanoma was above 100 µM in each case.
